In patent US11357749B2, “Methods for treating neutropenia” (Enzychem Lifesciences Corporation, priority 2014, dated 2022):

Experiments:
[1] = system: HepG2 cells; experiment: WST-1 cell viability assay in HepG2 cells; assay type: cell-based; details: HepG2, PLAG 1 to 100 μg/ml
Protocol: The incubated HepG2 cell lines are treated with PLAG (1˜100 μg/ml), followed by IL-4 and TNF-α, reacted for 1 hour, incubated for 18 hours at 37° C. and the supernatant isolated. Quantitation of the amount of C3 in the cellular culture medium (supernatant) from HepG2 cells is performed by ELISA using a commercially available monoclonal antibody (mAb, R&D Systems) and the manufacture's protocol; the results are presented in FIG. 3. C3 is expressed spontaneously under in vitro culture condition using 10% FCS added to HepG2 cells incubated for 12 hr. The cells are treated with different doses of PLAG from 1 to 100 μg/ml (Panel A, Panel B) or 10 and 100 μg/ml of S6I (Panel C), reacted with IL-4 and TNF-α for 1 hr and then incubated for 18 hr at 37° C. Cellular viability is confirmed using the WST-1 assay (Panel A).

[2] = system: C4; experiment: Clinical study in healthy subjects: C4 in blood; assay type: in vivo, human
[3] = system: C3; experiment: C3 expression (RT-PCR) in IL-4/TNF-α treated HMC-1 cells; assay type: cell-based, human; details: HMC-1 cells treated with IL-4 and TNF-α; PLAG 0.1 and 1 μg/mL
Protocol: A blood cell line, HMC-1 (human mast cell, American Type Culture Collection, ATCC, Rockville, Md.) is incubated and maintained at 37° C. under 5% CO2 humid conditions. The medium is IMDM (Life Technologies, Karlsruhe, Germany) containing 10% Fetal Calf Serum (FCS, HyClone, Logan, Utah), 2 mM […], 100 μg/ml penicillin, 100 μg/ml streptomycin (Life Technologies). The cultured HMC-1 cells (1×10^6 cell/ml) are pre-treated with 0.1 and 1 μg/mL concentration of PLAG, followed by treating with IL-4 (5 ng) and/or TNF-α (10 ng) to induce cellular activities.
The expressed C3 and its mRNA level change are observed by using RT-PCR (Reverse Transcriptase Polymerase Chain Reaction). The RT-PCR is carried out as follows: the total RNA is separated by the standard protocol and cDNA is synthesized using AccuScript High Fidelity 1st Strand cDNA Synthesis Kit (Stratagene) by the manufacturer's instructions. Two-step RT-PCR reaction is conducted using Oligo-dT primer and reverse transcriptase, pair of primer and Taq polymerase (Takara, Shiga, Japan). […] The product of PCR is separated using 1.5% agarose gel, dyed with ethidium bromide (EtBr), and visualized with Gel Doc 2000 UV trans-illuminator (Bio-Rad Laboratories, Hercules, Calif., USA), and the experimental data is analyzed using Quantity One software (Bio-Rad Laboratories).

[4] = system: ERK1/2; experiment: ERK1/2 phosphorylation, western blot in IgE-antigen stimulated RBL-2H3 cells; assay type: cell-based; details: PLAG pre-incubated RBL-2H3 cells, IgE-antigen complex stimulation
Protocol: Dephosphorylation of p38 MAPK and ERK1/2 in PLAG-treated RBL-2H3 cells is determined by western blot analysis using anti-phospho-p38 and anti-phospho-ERK1/2 respectively. To activate the p38 and ERK1/2 in RBL-2H3 cells, the cells are sensitized with 50 ng/mL of anti-DNP-IgE overnight. After washing with PBS three times, 20 ng/ml of DNP-HSA is added. Each cell lysate for western blot is prepared in the PLAG-treated RBL-2H3 cells in a dose-dependent manner and incubated for the same time (15 min). β-actin is used as internal controls. ERK1/2 and p38 phosphorylation start immediately after IgE-antigen complex stimulation and remain sufficiently activated for 5 min.

[5] = system: monocytes; experiment: Monocyte ratio in blood of LPS-treated C57BL/6 mice; assay type: in vivo; details: C57BL/6 mouse, LPS + PLAG, ratio to total leukocytes
Protocol: To observe the ratio of neutrophil and lymphocyte in the blood of Balb/C mice, 1 mg/kg of lipopolysaccharide (LPS) is injected to mice, i.p. to induce inflammation. 5 mg/kg of PLAG is administered to the mice orally and blood samples are taken at 3 and 13 days after. In addition, for comparison, normal mice that are not treated with PLAG, receive PBS (phosphate buffered saline) and olive oil. The blood samples taken from the mice are treated with EDTA bottle 0.5 ml (Minocollect tube, Greiner bio-one, Austria) and the level of neutrophils (NEU) and lymphocytes (LYM) as a percentage of total leukocytes is measured using automated blood sample analyzer BC-6800 (Mindray, Shenzhen, China).
Except for using C57BL/6 mouse instead of Balb/C mouse, mice are treated in the same manner as Example 6, the monocyte ratio (Mono) to total leukocytes is measured and the results are shown in Table 5.

[6] = system: splenic nodules, primitive progenitor cells and megakaryocytes; experiment: Colony forming units in spleen (CFUs) assay in heavily irradiated mice; assay type: in vivo; details: 50 mg/kg/d i.p. or p.o.
Protocol: In order to determine the in vivo effect of PLAG on the recovery of hematopoiesis, a CFUs assay is performed in heavily irradiated mice.

## CCCCC/C=C\C/C=C\CCCCCCCC(=O)OC(COC(C)=O)COC(=O)CCCCCCCCCCCCCCC (racemic) [PLAG, 1-palmitoyl-2-linoleoyl-3-acetylglycerol]
[1]
  cellular viability (WST-1): does not affect the cellular propagation and death
[2]; healthy subjects n = 27, 500 mg PLAG per day oral, after 4-wk intervention
  C4, After: 20.8 ± 5.6 mg/dL
[2]; healthy subjects n = 27, before PLAG supplementation
  C4, Before: 21.6 ± 6.6 mg/dL
[3]
  expression of C3: suppressed by PLAG on a concentration dependent basis
[4]
  ERK1/2 phosphorylation: down-regulated
[5]
  Monocyte ratio: 18.4 ± 6.6%
[6]
  number of splenic nodules and numbers of primitive progenitor cells and megakaryocytes: marked increase
